Reference: patent US6498862B1 (priority 1999, dated 2002)

Test system: B. cepacia biofilm
Format: cell-based, Burkholderia cepacia

`O=[O+][O-]` [ozone, Ozone] was tested, and the “biocide efficacy (rank order, from cell number/3000 μm^2 and total cell area vs elapsed time)” value was “greatest”.
